Measurements as given in PMC12249711, “Comprehensive Evaluation of 1H-Isoindole-1,3(2H)-Dione Derivatives: Pharmacokinetic Studies and Analgesic Potential in Various Pain Models” (International Journal of Molecular Sciences, 2025).
Where two headings read alike, the source gives them in different places.

How the values were obtained:
[1] = Pharmacokinetic study after single i.p. administration, serum and brain concentrations by LC-MS/MS, non-compartmental analysis; format: in vivo, Albino Swiss mice; conditions: mice; for Kp: brain/serum, read-out: Kbrain/serum (brain/serum partitioning coefficient); for Kp / MRT / Tmax / half-life / k el / CL/F / Vd/F / AUC0-inf / AUC0–8h: 5 mg/kg i.p.; for half-life: read-out: t1/2(λz) half-life in the elimination phase (converted); for k el: read-out: λz (terminal elimination rate constant) (converted); for Vd/F: read-out: Vz/F
Description: The compounds F1, F2, F3, and F4 were suspended in a 1% Tween 80 solution in sterile water for injection and given to mice i.p. at a dose of 5 mg/kg (n = 3 per time point; all mice in procedure = 96) as a single injection at a volume of 10 mL/kg. At specific time points (5; 15; 30; 60; 120; 240; 360; and 480 min after compound administration), mice were sacrificed by decapitation under isoflurane (5%) anesthesia to harvest blood and brain for assays. After allowing the blood to coagulate for 20 min at room temperature, blood samples were centrifuged for 10 min at 8000 rpm (Eppendorf miniSpin centrifuge) to obtain serum. Moreover, brains were removed (at the same time point) from skulls and washed with 0.9% NaCl. The obtained serum and brains were stored at −80 °C until analysis.
Concentrations of compounds F1 to F4 in mice brains and serum were measured by the liquid chromatography tandem mass spectrometry (LC-MS/MS) method using a Sciex QTRAP 4500 triple quadrupole mass spectrometer coupled to an Excion LC AC HPLC system (both from Danaher Corporation, Washington, DC, USA). The brains were homogenized in distilled water at the ratio of 1:4 (w/v) with a tissue homogenizer ULTRA-TURRAX T10 basic (IKA, Königswinter, Germany). The stock solutions of analyzed compounds were prepared in methanol at the concentration of 1 mg/mL. For the preparation of calibration curves, working standard solutions were prepared in methanol by the serial dilution of the stock solution at the following concentrations: 0.005; 0.01; 0.1; 0.25; 0.5; 1; 2.5; 5; and 10 µg/mL. To prepare samples for the calibration curve, 45 μL of matrix (blank plasma or brain homogenate) was spiked with 5 μL of standard working solution at an appropriate concentration level and vortexed for 10 s. Brain homogenates or serum samples (50 µL) as well as calibration samples were deproteinized with 150 μL of 0.1% formic acid in acetonitrile with an addition of internal standard (valsartan), shaken for 10 min (IKA Vibrax VXR, Königswinter, Germany), and centrifuged for 5 min at a speed of 8000× g (Eppendorf miniSpin centrifuge, Hamburg, Germany). Then, brain or serum supernatants were transferred into the autosampler vials. The autosampler temperature was maintained at 15 °C and a sample volume of 1 μL was injected into the LC-MS/MS system.
Chromatographic separation was carried out on the Hypersil GoldTM C18 analytical column (2.1 × 50 mm, 3 µm, Thermo Scientific, Waltham, MA, USA) with the oven temperature set at 30 °C. The mobile phase containing 0.1% formic acid in acetonitrile and 0.1% formic acid in water was delivered at a flow rate of […] in the gradient mode. Electrospray ionization (ESI) in the positive ion mode was used for ion production. The tandem mass spectrometer was operated at unit resolution in the selected reaction monitoring mode (SRM), monitoring the transitions of the protonated molecular ions m/z 366 to 201 (CE = 40 eV) and m/z 366 to 160 (CE = 40 eV) for compound F1, m/z 396 to 190 (CE = 39 eV) and m/z 396 to 160 (CE = 49 eV) for compound F2, m/z 434 to 145 (CE = 95 eV) and m/z 434 to 160 (CE = 47 eV) for compound F3, and m/z 456 to 167 (CE = 27 eV) and m/z 456 to 152 (CE = 85 eV) for compound F4. The first pair was used as a quantifier and the second for the identity verification—qualifier. One pair (m/z 436 to 235; CE = 42 eV) was monitored for valsartan used as an internal standard. The mass spectrometric conditions were optimized by continuous infusion of the standard solutions at the rate of 7 μL/min using a Harvard infusion pump (Harvard Apparatus, Holliston, MA, USA). The ion source temperature was maintained at 450 °C and the ion spray voltage was set at 4500 V. The curtain gas (CUR) was set at 40 and the collision gas (CAD) at Medium. The calibration curves were constructed by plotting the ratio of the peak area of the studied compound to internal standard (IS) versus drug concentration and generated by weighted (1/x·x) linear regression analysis. […]

[2] = system: mice; assay: Oxaliplatin-induced neuropathic pain, von Frey test (tactile allodynia); format: in vivo, Albino Swiss mice; conditions: 10 mg/kg i.p.
Description: Furthermore, to assess the response to mechanical stimuli (i.e., tactile/mechanical) allodynia), the von Frey test was carried out with application of the electronic von Frey unit (Panlab, Cornellà de Llobregat, Spain) equipped with a fiber, the distal end of which was applied to the right hind paw of the mouse. The device automatically recorded the pressure force (in grams) applied until the paw withdrawal response occurred. In the absence of pain, an increase in the pressure value was observed. The force at which the animal withdrew its paw was considered the pain threshold for the mechanical stimulus. Measurements were taken before streptozotocin administration (in normoglycemic mice) and again 21 days later, both before and after compound administration, in diabetic mice (glucose level > 300 mg/dL) that had developed mechanical allodynia. On the day of the experiment, each mouse was placed in an observation chamber with a wire mesh bottom and was allowed to habituate for 1 h. After the habituation period, in order to obtain baseline values, each mouse was tested 3 times alternately in each hind paw, allowing at least 30 s between each measurement. Then, the mice were pretreated intraperitoneally with compound or vehicle, and 30 min later the animals were tested again and three measurements were taken, the mean of which was calculated to obtain the mean values after drug administration for each mouse. The anti-allodynic effect was defined as an increase in the pressure force value required to elicit a pain response, compared to the control group.
To assess the response to mechanical stimuli (i.e., tactile/mechanical allodynia), the von Frey test was performed using an electronic von Frey device (Bioseb, Vitrolles, France), as described in Section 4.4.5. In this assay, measurements were taken before and 3 h after oxaliplatin administration, as well as 7 days later. […] A total of 30 min after administration, the assessment was repeated using the same procedure.

[3] = Albino Swiss, mouse, ip, serum, 5 min after 5 mg/kg i.p., read-out: Cmax (maximal concentration)
[4] = brain, 5 mg/kg i.p. single dose
[5] = serum, 5 mg/kg i.p. single dose
[6] = early phase, 3 h after oxaliplatin
[7] = late phase, 7 days after oxaliplatin

| SMILES | Kp ([1]; Albino Swiss, mouse, ip) | MRT ([1]; Albino Swiss, mouse, ip, brain) [min] | Tmax ([1]; Albino Swiss, mouse, ip, brain) [min] | half-life ([1]; Albino Swiss, mouse, ip, brain) [min] | k el ([1]; Albino Swiss, mouse, ip, brain) [s⁻¹] | Cmax [1, 3] [µg/mL] | CL/F ([1]; Albino Swiss, mouse, ip, serum) [L/h/kg] | MRT ([1]; Albino Swiss, mouse, ip, serum) [min] | Tmax ([1]; Albino Swiss, mouse, ip, serum) [min] | Vd/F ([1]; Albino Swiss, mouse, ip, serum) [L/kg] | half-life ([1]; Albino Swiss, mouse, ip, serum) [min] | k el ([1]; Albino Swiss, mouse, ip, serum) [s⁻¹] | AUC0-inf ([1]; brain) | AUC0–8h ([1]; brain) | Cmax [1, 4] | AUC0-inf ([1]; serum) | AUC0–8h ([1]; serum) | Cmax [1, 5] | Analgesic activity (von Frey) [2, 6] [%] | Pain threshold after compound administration (von Frey) [2, 6] [g] | further results |
| --- | --- | --- | --- | --- | --- | --- | --- | --- | --- | --- | --- | --- | --- | --- | --- | --- | --- | --- | --- | --- | --- |
| O=C1c2ccccc2C(=O)N1CC(O)CN1CCN(c2ccccc2)CC1 (stereo not shown) [Compound F1] | 1.77 | 81.6 | 4.98 | 54.6 | 0.000211 | 0.596 | 23.7 | 79.2 | 4.98 | 32.6 | 57 | 0.000203 | 374.60 µg∙h/L(kg) | 368.04 µg∙h/L(kg) | 970 µg/L(kg) | 211.22 µg∙h/L(kg) | 205.95 µg∙h/L(kg) | 595.75 µg/L(kg) | 60.7 | 3.39 ± 0.46 | Analgesic activity (von Frey) [2, 7]: 35%; Pain threshold after compound administration (von Frey) [2, 7]: 3.9 ± 0.34 g |
| COc1ccccc1N1CCN(CC(O)CN2C(=O)c3ccccc3C2=O)CC1 (stereo not shown) [Compound F2] | 0.79 | 84.6 | 4.98 | 54 | 0.000214 | 0.7 | 16.8 | 68.4 | 4.98 | 18.2 | 45 | 0.000256 | 237.16 µg∙h/L(kg) | 230.83 µg∙h/L(kg) | 465.38 µg/L(kg) | 298.26 µg∙h/L(kg) | 292.78 µg∙h/L(kg) | 699.75 µg/L(kg) | 81 | 3.91 ± 0.29 | Analgesic activity (von Frey) [2, 7]: 45.45%; Pain threshold after compound administration (von Frey) [2, 7]: 4.0 ± 0.34 g |
| O=C1c2ccccc2C(=O)N1CC(O)CN1CCN(c2cccc(C(F)(F)F)c2)CC1 (stereo not shown) [Compound F3] | 2.05 | 190 | 15 | 78.6 | 0.000147 | 0.21 | 17.8 | 168 | 4.98 | 32.4 | 75.6 | 0.000153 | 573.90 µg∙h/L(kg) | 520.05 µg∙h/L(kg) | 202.25 µg/L(kg) | 280.26 µg∙h/L(kg) | 258.81 µg∙h/L(kg) | 210.25 µg/L(kg) | 82.9 | 3.53 ± 0.08 | Analgesic activity (von Frey) [2, 7]: 37.59%; Pain threshold after compound administration (von Frey) [2, 7]: 3.99 g |
| O=C1c2ccccc2C(=O)N1CC(O)CN1CCN(C(c2ccccc2)c2ccccc2)CC1 (stereo not shown) [Compound F4] | 1.62 | 97.8 | 15 | 46.8 | 0.000247 | 0.131 | 48 | 88.2 | 4.98 | 55.8 | 48 | 0.000239 | 168.99 µg∙h/L(kg) | 164.50 µg∙h/L(kg) | 163.5 µg/L(kg) | 104.12 µg∙h/L(kg) | 101.99 µg∙h/L(kg) | 130.58 µg/L(kg) | 76.2 | 3.56 ± 0.32 | Analgesic activity (von Frey) [2, 7]: 24.39%; Pain threshold after compound administration (von Frey) [2, 7]: 3.57 ± 0.33 g |
